Data from US6780821B1, “Substituted phenyl uracils” (Bayer Aktiengesellschaft, priority 1998, dated 2004).

melting point [°C]	SMILES
84	COc1ccc(Oc2cc(-n3c(=O)cc(C(F)(F)F)[nH]c3=O)c(F)cc2C#N)cc1 [Example 1, 4-(3,6-dihydro-2,6-dioxo-4-trifluoromethyl-1(2H)-pyrimidin-1-yl)-5-fluoro-2-(4-methoxy-phenoxy)-benzonitrile]
62	COc1ccc(Oc2cc(-n3c(=O)cc(C(F)(F)F)n(C)c3=O)c(F)cc2C#N)cc1 [Example 2, 4-(3,6-dihydro-2,6-dioxo-3-methyl-4-trifluoromethyl-1(2H)-pyrimidin-1-yl)-5-fluoro-2-(4-methoxy-phenoxy)-benzonitrile]
